The values below are quoted from earlier work in patent publication US10231936B2, “Delayed release pharmaceutical formulations” (Euro-Celtique S.A., priority 2000, dated 2019).

Structures are written as SMILES. Counter-ions that a name gives are not always drawn. Like-named read-outs stand apart in the source and are kept apart here.

The conditions of data set [1]: by mouth.
For data set [2] the following is noted: spheroids in capsules.
For data set [3] the following is noted: conventional normal release dosage form.

On to `CCC(=O)O[C@]1(C(=O)SCF)[C@H](C)C[C@H]2[C@@H]3C[C@H](F)C4=CC(=O)C=C[C@]4(C)[C@@]3(F)[C@@H](O)C[C@@]21C` [Fluticasone, Fluticasone Propionate], for which the bioavailability entry in data set [1] was “low bioavailability”. Take `CCCC1O[C@@H]2C[C@H]3[C@@H]4CCC5=CC(=O)C=C[C@]5(C)[C@H]4[C@@H](O)C[C@]3(C)[C@]2(C(=O)CO)O1` (stereo partly drawn) [Budesonide]: the “total absorbed Budesonide absorbed in the ileum and ascending colon” value was 68% in data set [2] (fasting healthy subjects) and 69% in data set [2] (fed healthy subjects).

For the compound `C[C@]12C=CC(=O)C=C1CC[C@@H]1[C@@H]2[C@@H](O)C[C@@]2(C)[C@H]1CC[C@]2(O)C(=O)COC(=O)c1cccc(S(=O)(=O)[O-])c1.[Na+]` [PSMB, Prednisolone sodium metasulphobenzoate], the bioavailability result in data set [1] is “very low bioavailability”. For `Cc1ccc(-c2nc3ccc(C)cn3c2CC(=O)N(C)C)cc1` [Zolpidem tartrate], in data set [3], the elimination half-life was roughly 2 h. Regarding `CN1CCN(C(=O)OC2c3nccnc3C(=O)N2c2ccc(Cl)cn2)CC1` (stereo not drawn) [Zopiclone], the elimination half-life in data set [3] was roughly 2 h.
